Assay results reported in PMC4138103 (PLoS ONE, 2014).
Read-outs that look alike come from different tables or passages of the source.

Legend:
[1] = test system: Sprague-Dawley rats; assay: Serum steroids and gonadotropins; assay type: in vivo, Rattus norvegicus; settings: for CED, Serum FSH / CED, Serum LH / CED-L, Serum FSH / CED-L, Serum LH: adipose tissue concentration based; for Emax: Rattus norvegicus; for Estradiol / LH / Progesterone / FSH / Testosterone: group mean; for Serum FSH, CED / Serum FSH, CED-L / Serum LH, CED / Serum LH, CED-L: total dose based
Protocol: Serum testosterone, estradiol and progesterone concentrations were measured by time-resolved immunofluorometric assay, DELFIA (PerkinElmer Life and Analytical Sciences, Turku, Finland) after diethyl ether (Merck KGaA, Darmstadt, Germany) extraction. Ether-extracted serum samples were reconstituted to DELFIA Diluent II buffer (PerkinElmer Life and Analytical Sciences, Turku, Finland) and used for analysis. The sensitivity of the assay was 100 pg/ml for testosterone, 13.6 pg/ml for estradiol and 250 pg/ml for progesterone. The intra- and interassay coefficients of variation (CV) were below 6 and 12%, respectively. To enhance the sensitivity, commercial tracer and antiserum were additionally diluted 5∶8 with assay buffer (PerkinElmer Life and Analytical Sciences, Turku, Finland) in testosterone assay. For estradiol and progesterone, dilution rate was 1∶2. Serum follicle stimulating hormone (FSH) and luteinizing hormone (LH) levels were determined from unextracted samples by DELFIA as described previously, [31].
Data were also analyzed using the BMD method, which is based on dose-response modeling of the full data set using a nested family of exponential and Hill models. The analyses were done on data of males and females combined, using sex as a covariate. […] In that case, different Critical Effect Doses (CEDs) and CEDs at the lowest bound of the confidence interval (CED-L) were generated for each sex. If no difference between sexes is detected, a CED and CED-Ls for the combined data is generated. However, this was also done if the curve fits are close, and separate analyses for males and females were then performed manually. CEDs and CED-Ls were calculated at the predefined Critical Effect Size (CES) of 5% (EFSA standard) or 10%.

[2] = test system: Liver enzymes; set-up: method as in Roos et al., 2011; settings: 2011, cited from earlier work; for CED, CYP3A1 mRNA / CED-L, CYP3A1 mRNA: model E4; for CED, CYP3A1 mRNA / CED-L, CYP3A1 mRNA / CED, CYP2B1 mRNA / CED-L, CYP2B1 mRNA: adipose tissue concentration based, enzyme induction data ref Roos et al.; for CED, CYP2B1 mRNA / CED-L, CYP2B1 mRNA: model E5; for CYP2B1 mRNA, CED / CYP2B1 mRNA, CED-L / CYP3A1 mRNA, CED / CYP3A1 mRNA, CED-L: total dose based, ref Roos et al.
[3] = females, total dose 10 mg/kg bw
[4] = females, total dose 30 mg/kg bw
[5] = females, total dose 100 mg/kg bw
[6] = females, total dose 300 mg/kg bw
[7] = females, total dose 1000 mg/kg bw
[8] = females, total dose 1700 mg/kg bw
[9] = males, total dose 1000 mg/kg bw
[10] = males, total dose 1700 mg/kg bw

Clc1cc(Cl)c(-c2cc(Cl)c(Cl)c(Cl)c2Cl)cc1Cl [PCB 180, 2,2′,3′,4,4′,5,5′-heptachlorobiphenyl]
CED, Serum FSH ([1]; M, CES 5%, model E2): 1600 µg/g lipid
CED, Serum LH ([1]; M, CES 5%, model E2): 1160 µg/g lipid
CED-L, Serum FSH ([1]; M, CES 5%, model E2): 1116 µg/g lipid
CED-L, Serum LH ([1]; M, CES 5%, model E2): 648 µg/g lipid
CED, Serum FSH ([1]; M, CES 10%, model E2): 3290 µg/g lipid
CED, Serum LH ([1]; M, CES 10%, model E2): 2390 µg/g lipid
CED-L, Serum FSH ([1]; M, CES 10%, model E2): 2292 µg/g lipid
CED-L, Serum LH ([1]; M, CES 10%, model E2): 1331 µg/g lipid
Emax ([1]; males, controls vs high dose, fitted model, read-out: Serum FSH, Maximum response): -20.6%
Emax ([1]; males, controls vs high dose, fitted model, read-out: Serum LH, Maximum response): -27.9%
Emax ([1]; M, model E2, controls vs high dose according to the fitted model, read-out: Maximum response, Serum FSH): -21.1%
Emax ([1]; M, model E2, controls vs high dose according to the fitted model, read-out: Maximum response, Serum LH): -27.8%
Estradiol ([1]; females, total dose 3 mg/kg bw): 20.2 pg/mL
LH ([1]; females, total dose 3 mg/kg bw): 1.51 ng/mL
Progesterone ([1]; females, total dose 3 mg/kg bw): 37.1 ng/mL
Estradiol [1, 3]: 23.6 pg/mL
LH [1, 3]: 2.57 ng/mL
Progesterone [1, 3]: 18.0 ng/mL
Estradiol [1, 4]: 18.8 pg/mL
LH [1, 4]: 1.81 ng/mL
Progesterone [1, 4]: 22.3 ng/mL
Estradiol [1, 5]: 21.4 pg/mL
LH [1, 5]: 1.96 ng/mL
Progesterone [1, 5]: 33.0 ng/mL
Estradiol [1, 6]: 15.4 pg/mL
LH [1, 6]: 2.02 ng/mL
Progesterone [1, 6]: 27.5 ng/mL
Estradiol [1, 7]: 17.4 pg/mL
LH [1, 7]: 1.39 ng/mL
Progesterone [1, 7]: 27.7 ng/mL
Estradiol [1, 8]: 17.6 pg/mL
LH [1, 8]: 1.77 ng/mL
Progesterone [1, 8]: 22.7 ng/mL
FSH, Dose response ([1]; males): D, T
LH, Dose response ([1]; males): D, T
Serum FSH, CED ([1]; males, CES 5%): 377 mg/kg bw
Serum FSH, CED-L ([1]; males, CES 5%): 263 mg/kg bw
Serum LH, CED ([1]; males, CES 5%): 266 mg/kg bw
Serum LH, CED-L ([1]; males, CES 5%): 150 mg/kg bw
Serum FSH, CED ([1]; males, CES 10%): 775 mg/kg bw
Serum FSH, CED-L ([1]; males, CES 10%): 540 mg/kg bw
Serum LH, CED ([1]; males, CES 10%): 547 mg/kg bw
Serum LH, CED-L ([1]; males, CES 10%): 309 mg/kg bw
FSH ([1]; males, total dose 3 mg/kg bw): 8.23 ng/mL
LH ([1]; males, total dose 3 mg/kg bw): 1.23 ng/mL
Testosterone ([1]; males, total dose 3 mg/kg bw): 2.35 ng/mL
FSH ([1]; males, total dose 10 mg/kg bw): 8.54 ng/mL
LH ([1]; males, total dose 10 mg/kg bw): 0.91 ng/mL
Testosterone ([1]; males, total dose 10 mg/kg bw): 2.66 ng/mL
FSH ([1]; males, total dose 30 mg/kg bw): 7.44 ng/mL
LH ([1]; males, total dose 30 mg/kg bw): 0.99 ng/mL
Testosterone ([1]; males, total dose 30 mg/kg bw): 1.92 ng/mL
FSH ([1]; males, total dose 100 mg/kg bw): 7.88 ng/mL
LH ([1]; males, total dose 100 mg/kg bw): 0.84 ng/mL
Testosterone ([1]; males, total dose 100 mg/kg bw): 3.21 ng/mL
FSH ([1]; males, total dose 300 mg/kg bw): 7.66 ng/mL
LH ([1]; males, total dose 300 mg/kg bw): 1.03 ng/mL
Testosterone ([1]; males, total dose 300 mg/kg bw): 2.04 ng/mL
FSH [1, 9]: 7.49 ng/mL
LH [1, 9]: 0.77 ng/mL
Testosterone [1, 9]: 2.18 ng/mL
FSH [1, 10]: 6.49 ng/mL
LH [1, 10]: 0.75 ng/mL
Testosterone [1, 10]: 1.85 ng/mL
CED, CYP3A1 mRNA ([2]; F, CES 5%): 6.75 µg/g lipid
CED-L, CYP3A1 mRNA ([2]; F, CES 5%): 3.19 µg/g lipid
CED, CYP2B1 mRNA ([2]; F, CES 5%): 12.4 µg/g lipid
CED-L, CYP2B1 mRNA ([2]; F, CES 5%): 5.74 µg/g lipid
CED, CYP3A1 mRNA ([2]; F, CES 10%): 13.5 µg/g lipid
CED-L, CYP3A1 mRNA ([2]; F, CES 10%): 6.39 µg/g lipid
CED, CYP2B1 mRNA ([2]; F, CES 10%): 15.5 µg/g lipid
CED-L, CYP2B1 mRNA ([2]; F, CES 10%): 7.76 µg/g lipid
CED, CYP3A1 mRNA ([2]; M, CES 5%): 5.88 µg/g lipid
CED-L, CYP3A1 mRNA ([2]; M, CES 5%): 3.63 µg/g lipid
CED, CYP2B1 mRNA ([2]; M, CES 5%): 1.52 µg/g lipid
CED-L, CYP2B1 mRNA ([2]; M, CES 5%): 0.584 µg/g lipid
CED, CYP3A1 mRNA ([2]; M, CES 10%): 11.8 µg/g lipid
CED-L, CYP3A1 mRNA ([2]; M, CES 10%): 7.26 µg/g lipid
CED, CYP2B1 mRNA ([2]; M, CES 10%): 2.15 µg/g lipid
CED-L, CYP2B1 mRNA ([2]; M, CES 10%): 0.895 µg/g lipid
CYP2B1 mRNA, CED ([2]; females, CES 5%): 1.70 mg/kg bw
CYP2B1 mRNA, CED-L ([2]; females, CES 5%): 0.90 mg/kg bw
CYP3A1 mRNA, CED ([2]; females, CES 5%): 1.50 mg/kg bw
CYP3A1 mRNA, CED-L ([2]; females, CES 5%): 0.70 mg/kg bw
CYP2B1 mRNA, CED ([2]; females, CES 10%): 2.20 mg/kg bw
CYP2B1 mRNA, CED-L ([2]; females, CES 10%): 1.20 mg/kg bw
CYP3A1 mRNA, CED ([2]; females, CES 10%): 2.90 mg/kg bw
CYP3A1 mRNA, CED-L ([2]; females, CES 10%): 1.40 mg/kg bw
CYP2B1 mRNA, CED ([2]; males, CES 5%): 0.70 mg/kg bw
CYP2B1 mRNA, CED-L ([2]; males, CES 5%): 0.40 mg/kg bw
CYP3A1 mRNA, CED ([2]; males, CES 5%): 1.40 mg/kg bw
CYP3A1 mRNA, CED-L ([2]; males, CES 5%): 0.90 mg/kg bw
CYP2B1 mRNA, CED ([2]; males, CES 10%): 1.00 mg/kg bw
CYP2B1 mRNA, CED-L ([2]; males, CES 10%): 0.50 mg/kg bw
CYP3A1 mRNA, CED ([2]; males, CES 10%): 2.90 mg/kg bw
CYP3A1 mRNA, CED-L ([2]; males, CES 10%): 1.80 mg/kg bw
